Results published in patent publication US20220213433A1, “Three-Dimensional Cross-Linked Scaffolds of Cord Blood Plasma and Their Use” (SANFORD HEALTH, priority 2019, published 2022).
“Also recorded” adds a separate entry of the source.

Legend:
[1] = time to achieve matrix cross-linking of cord blood plasma; assay type: physicochemical, human
Procedure: (§1) FIG. 2(a-b). Chemical characterization of cord blood plasma 3D culture model referred as InvitroWOMB (iWOMB).
(§2) Referring to FIG. 2, cross-linking time was assessed by measuring the time necessary to achieve matrix cross-linking using three relevant cross-linkers of the blood coagulation process including thrombin (0-5 mg/ml) and CaCl2 (0-10 mg/ml). The stabilization effects of preventing fibrin degradation and stability improvement in the scaffold was assessed by surveying an antifibrinolytic agent such as tranexamic acid (0-5 mg/ml). The stability of the scaffold was studied by measuring each scaffold weight at day 0 and again measuring scaffold weight at the conclusion of a 3 week time period.

[2] = scaffold stability: scaffold weight at day 0 and after 3 weeks; assay type: physicochemical, human; conditions: tranexamic acid in the range of 5 mg/ml (tested 0-5 mg/ml); 3 week period
Procedure: as §1, §2

GDM-exposed hu-MSC = assay: hu-MSC growth assay with metformin, live cells counted by Trypan blue; assay type: cell-based, human; conditions: 25 μM metformin; 20K cells/well; 72 hour cell counts
Text: (§3) FIG. 9(a-d). Precision capabilities. (a) Using a custom human antibody array we measured relative expression of cytokines and growth factors in cord plasma for scaffolds from subjects with Type 1 (T1D), Type 2 (T2D) and gestational diabetes (GDM). Bar graphs represent relative expression by densitometry compared to negative control (membrane background). (b) Hu-MSC from control, T1D, T2D and GDM donors (n=2-3/group) were uniformly plated (50K live cells/well) in stem cell media to collagen-coated, 24-well plates. Trypan blue was used to count live cells every 24 hours and growth was measured and compared. Bar graphs represent fold change from baseline to 72 hours; *p<0.05 by one-way ANOVA with Dunnett post-test, (c) Control hu-MSCs were treated with metformin at increasing doses (0, 25, 50 and 100 μM) and growth was followed as previously described. […] Bar graphs represent the number of cells/well remaining at 72 hours after initial plating of 20K cells/well.
(§4) To determine whether iWOMB is a useful tool for precision-based assays, we used umbilical cord plasma and hu-MSC from control and diabetic pregnancy to identify diabetes-related differences in proteins in the DME and/or programmed cell fate. […] Using our customized antibody array as detailed above (FIG. 8), we compared relative expression of cytokines and growth factors in cord plasma protein. Just as fibrinogen levels are higher in cord plasma from diabetic pregnancies, so are other factors. Specifically, umbilical cord plasma cytokines (IL-6, IL-10), insulin like growth factor −1 (IGF-1) and hepatocyte growth factor (HGF) from Type 1 diabetic pregnancy (TID) are higher than in plasma from Type 2 (T2D) and gestational diabetes (GDM) (FIG. 9a). […] Every 24 hours cells were detached using 0.25% trypsin/EDTA and live cells were counted using Trypan blue staining and a hemocytometer. Live cells were recorded at each time point for […]. […] Every 24 hours cells were detached using 0.25% trypsin/EDTA and live cells were counted using Trypan blue and a hemocytometer. Live cells were recorded at each time point for 72 hours. […]

control hu-MSC = assay: as above; assay type: cell-based, human
Text: as §3, §4

With `[Ca+2].[Cl-].[Cl-]` [CaCl2, calcium chloride] the cross-linking time ([1]; CaCl2 1.25 to 5 mg/ml (tested 0-10 mg/ml)) was “fastest crosslinking”.
With `NC[C@H]1CC[C@H](C(=O)O)CC1` [Tranexamic acid, tranexamic acid] the “scaffold stability (prevention of fibrin degradation)” value [2] was “best improvement in scaffold stability”.
In the case of `CN(C)C(=N)N=C(N)N` [metformin], the “growth of GDM exposed hu-MSC” value (GDM-exposed hu-MSC) was “increased growth; also recorded: improves”, the “growth of control hu-MSC” value (control hu-MSC; 25 μM metformin (level reported in umbilical cord blood), 20K cells/well, 72 hours) was “does not impair growth” and the “hu-MSC cell growth (number of live cells over time)” value (control hu-MSC; normal/control hu-MSC, metformin 0, 25, 50, 100 uM, live cells counted every 24 h for 72 hours) was “impairs hu-MSC growth in a dose dependent manner; also recorded: dose-dependent decline in cell growth”.
For thrombin, the cross-linking time ([1]; thrombin 0.5 to 5 mg/ml (tested 0-5 mg/ml)) was “fastest crosslinking”.
